Measured values: article PMC9250534, “Synthesis and direct assay of large macrocycle diversities by combinatorial late-stage modification at picomole scale” (Nature Communications, 2022)
Numbered stars: 1 amine (or outer) side, 2 acyl side, 3 side chain; on linkers, the order of the positions; unused ones are H or OH. Bridge positions count the residues as written; N and C are the ends. Square brackets hold non-standard residues; d marks the D form. Peptide text beside a SMILES is read from it. * marks the point of attachment. ξ: configuration not given here. ξPro(4-NHCO(5-Cl-2-thienyl)) = O=C(NC1CNC(C(=O)O)C1)c1ccc(Cl)s1; 1,2,3Thiadiazole5CO(4-Me) = Cc1nnsc1C(=O)*; 2Thenoyl(5-Cl) = O=C(c1ccc(Cl)s1)*; Phenoxyacetyl = O=C(COc1ccccc1)*; Cysteamide = C(CS[*:3])N[*:1]; X3 = O=C(Cc1c[nH]c2ccccc12)*; Orn = NCCC[C@H](N)C(=O)O; 2Furoyl = O=C(c1ccco1)*; Api = NC1(C(=O)O)CCNCC1; Bz = O=C(c1ccccc1)*; Mpa = O=C(O)CCS

Biological target: T1, thrombin (Homo sapiens, UniProt P00734)
T1 construct: consists of two polypeptide chains of 36 (light chain) and 259 amino acid
Assay: Thrombin inhibition screen of crude macrocycle reactions (residual thrombin activity, fluorogenic substrate Z-Gly-Gly-Arg-AMC)
Assay type: biochemical
Settings: 10 µM macrocycle concentration; for percent residual thrombin activity: crude reactions, Library 1a-l, scaffold AA1-AA2-AA3 combined with 1-16 or '-'; for % thrombin activity, Original screen / % thrombin activity, Repeat screen: macrocycles containing acid 14, crude reaction; for % thrombin activity, Repeat screen: replicate reaction and screen
In short: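 Each crude macrocycle (10 μM) was preincubated 10 min at room temperature with thrombin (2 nM final) in Tris-Cl pH 7.4 containing NaCl, MgCl2, CaCl2, 0.1% BSA, 0.01% Triton X-100 and 0.6% DMSO. Z-Gly-Gly-Arg-AMC (50 μM final) was then added. Inhibition came from fluorescence slopes relative to DMSO-only controls.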

Row | SMILES | percent residual thrombin activity [%] | % thrombin activity, Original screen [%] | % thrombin activity, Repeat screen [%]
1 | CC1NC(=O)CCSSCCNC(=O)C2CCCN2C(=O)C(CCCCNC(=O)c2ccco2)NC1=O (stereo not shown) [a-D1-B1/16] ([Mpa]AK(2Furoyl)P-Cysteamide; disulfide 1-C; configuration not given here) | 113.28 | – | –
2 | O=C1CCSSCCNC(=O)[C@H](CCCCNC(=O)Cc2c[nH]c3ccccc23)NC(=O)[C@H](Cc2ccc(O)cc2)NC(=O)C2(CC2)CN1 [B6-Y-D1/12] | 101.278 | – | –
3 | O=C1CCSSCCNC(=O)C(CCCCNC(=O)c2ccc(Cl)s2)NC(=O)C(CO)NC(=O)c2cccc(c2)CN1 (stereo not shown) [X B5 S D1] | – | 96.4 | 100.5
4 | O=C1CCSSCCNC(=O)[C@H](Cc2ccc(O)cc2)NC(=O)c2cccc(c2)CNC(=O)[C@H](CCCNC(=O)c2ccc(Cl)s2)N1 [D2-B5-Y/14] | 78.2447 | – | –
5 | O=C1CCSSCCNC(=O)[C@H](Cc2ccc(O)cc2)NC(=O)[C@H](CCCNC(=O)Cc2c[nH]c3ccccc23)NC(=O)C2(CC2)CN1 [B6-D2-Y/12] | 103.867 | – | –
6 | O=C1CCNC(=O)C2CC(NC(=O)c3ccc(Cl)s3)CN2C(=O)CCSSCCNC(=O)C(CO)N1 (stereo not shown) [X D5 B2 S] | – | 115.0 | 124.0
7 | Cc1nnsc1C(=O)NCCCC[C@@H]1NC(=O)[C@H](CC(C)C)NC(=O)CCSSCCNC(=O)[C@@H]2CCCN2C1=O [L-D1-B1/15] ([Mpa]LK(1,2,3Thiadiazole5CO(4-Me))P-Cysteamide; disulfide 1-C) | 110.815 | – | –
8 | CC(C)[C@@H]1NC(=O)c2ccc(cc2)CNC(=O)CCSSCCNC(=O)[C@H](CCCCNC(=O)c2ccc(Cl)s2)NC1=O [X B3 V D1] | – | 102.1 | 107.7
9 | CC(C)CC(=O)NCCC[C@@H]1NC(=O)CCSSCCNC(=O)[C@H](Cc2ccc(O)cc2)NC(=O)c2cccc(c2)CNC1=O [D2-B5-Y/8] | 100.592 | – | –
10 | CC(C)[C@H]1NC(=O)c2cccc(c2)CNC(=O)[C@H](CCCNC(=O)c2ccco2)NC(=O)CCSSCCNC1=O [D2-B5-v/16] | 103.718 | – | –
11 | CC(C)CC1NC(=O)C2CCCN2C(=O)CCSSCCNC(=O)C2CC(NC(=O)c3ccc(Cl)s3)CN2C1=O (stereo not shown) [X B1 L D5] ([Mpa]PL[ξPro(4-NHCO(5-Cl-2-thienyl))]-Cysteamide; disulfide 1-C; configuration not given here) | – | 94.2 | 99.9
12 | O=C1CCSSCCNC(=O)C2(CCN(C(=O)c3ccc(Cl)s3)CC2)NC(=O)[C@@H]2CCCN2C(=O)[C@H](Cc2c[nH]c3ccccc23)N1 [X W B1 D6] ([Mpa]WP[Api](2Thenoyl(5-Cl))-Cysteamide; disulfide 1-C) | – | 105.0 | 113.7
13 | COc1ccc(C(=O)NCCC[C@@H]2NC(=O)CCSSCCNC(=O)[C@H](Cc3ccc(O)cc3)NC(=O)c3cccc(c3)CNC2=O)cn1 [D2-B5-Y/10] | 96.9489 | – | –
14 | O=C(Cc1c[nH]c2ccccc12)NCCCC[C@@H]1NC(=O)[C@@H](CO)NC(=O)[C@@H]2CCCN2C(=O)CCSSCCNC1=O [B1-s-D1/12] ([Mpa]P[dS]K(X3)-Cysteamide; disulfide 1-C) | 111.278 | – | –
15 | CC1NC(=O)C2CCCN2C(=O)C(CCCCNC(=O)c2ccc(Cl)s2)NC(=O)CCSSCCNC1=O (stereo not shown) [D1-B1-a/14] ([Mpa]K(2Thenoyl(5-Cl))PA-Cysteamide; disulfide 1-C; configuration not given here) | 96.3758 | – | –
16 | CC(C)CC(=O)NCCCC[C@@H]1NC(=O)[C@@H](Cc2c[nH]c3ccccc23)NC(=O)[C@H]2CCCN(C2)C(=O)CCSSCCNC1=O [B4-w-D1/8] | 116.689 | – | –
17 | O=C1NC2(CCN(C(=O)c3ccc(Cl)s3)CC2)C(=O)N[C@@H](CO)C(=O)NCCSSCCC(=O)N2CCC[C@H]1C2 [X B4 D6 S] | – | 87.7 | 85.3
18 | CC[C@H](C)[C@@H]1NC(=O)[C@H](CCCNC(=O)c2c[nH]c(=O)[nH]c2=O)NC(=O)c2cccc(c2)CNC(=O)CCSSCCNC1=O [B5-D2-I/11] | 108.374 | – | –
19 | Cc1nnsc1C(=O)NCCCC[C@@H]1NC(=O)[C@H](Cc2ccc(O)cc2)NC(=O)C2(CC2)CNC(=O)CCSSCCNC1=O [B6-Y-D1/15] | 105.617 | – | –
20 | CC[C@H](C)[C@@H]1NC(=O)[C@H](CCCNC(=O)c2snnc2C)NC(=O)CCSSCCNC(=O)[C@@H]2CCCN2C1=O [D2-I-B1/15] ([Mpa][Orn](1,2,3Thiadiazole5CO(4-Me))IP-Cysteamide; disulfide 1-C) | 108.604 | – | –
21 | O=C1CCSSCCNC(=O)c2ccc(cc2)CNC(=O)[C@H](Cc2c[nH]c3ccccc23)NC(=O)[C@H](CNC(=O)c2ccc(Cl)s2)N1 [X D3 W B3] | – | 101.5 | 109.4
22 | CC[C@H](C)[C@@H]1NC(=O)[C@H](CCCNC(=O)c2snnc2C)NC(=O)c2cccc(c2)CNC(=O)CCSSCCNC1=O [B5-D2-I/15] | 106.982 | – | –
23 | NCCC[C@@H]1NC(=O)CCSSCCNC(=O)[C@H](Cc2ccc(O)cc2)NC(=O)c2cccc(c2)CNC1=O [D2-B5-Y/-] | 110.083 | – | –

Row | SMILES | percent residual thrombin activity [%] | % thrombin activity, Original screen [%] | % thrombin activity, Repeat screen [%]
24 | COc1ccc(C(=O)NCCCC[C@@H]2NC(=O)[C@H]3CCCN(C3)C(=O)[C@@H](CO)NC(=O)CCSSCCNC2=O)cn1 [s-B4-D1/10] | 109.656 | – | –
25 | COc1ccc(C(=O)NCCCC[C@@H]2NC(=O)[C@H](CO)NC(=O)c3cccc(c3)CNC(=O)CCSSCCNC2=O)cn1 [B5-S-D1/10] | 101.444 | – | –
26 | O=C1CCSSCCNC(=O)c2cccc(c2)CNC(=O)[C@H](Cc2ccccc2)NC(=O)[C@H](CCCNC(=O)c2ccc(Cl)s2)N1 [X D2 F B5] | – | 95.3 | 93.4
27 | CC(C)[C@H]1NC(=O)[C@H](CCCCN)NC(=O)[C@@H]2CCCN2C(=O)CCSSCCNC1=O [B1-D1-v/-] ([Mpa]PK[dV]-Cysteamide; disulfide 1-C) | 114.269 | – | –
28 | O=C1CCSSCCNC(=O)c2ccc(cc2)CNC(=O)[C@H](Cc2c[nH]c3ccccc23)NC(=O)[C@H](CCCNC(=O)c2c[nH]c(=O)cn2)N1 [D2-W-B3/9] | 111.429 | – | –
29 | O=C1CCSSCCNC(=O)[C@H](Cc2ccc(O)cc2)NC(=O)[C@H](CCCNC(=O)c2ccc(Cl)s2)NC(=O)C2(CC2)CN1 [B6-D2-Y/14] | 95.7216 | – | –
30 | CC(C)[C@@H]1NC(=O)[C@H](CNC(=O)c2ccc(Cl)s2)NC(=O)[C@H]2CCCN(C2)C(=O)CCSSCCNC1=O [X B4 D3 V] | – | 62.4 | 58.2
31 | O=C1CCSSCCNC(=O)[C@H](CCCCNC(=O)c2c[nH]c(=O)[nH]c2=O)NC(=O)c2cccc(c2)CNC(=O)[C@H](CO)N1 [S-B5-D1/11] | 117.639 | – | –
32 | O=C1CCSSCCNC(=O)[C@H](CNC(=O)c2ccc(Cl)s2)NC(=O)[C@H](Cc2ccc(O)cc2)NC(=O)C2(CC2)CN1 [X B6 Y D3] | – | 68.6 | 63.8
33 | CC[C@H](C)[C@@H]1NC(=O)[C@H](CCCNC(=O)c2cc(C)on2)NC(=O)c2cccc(c2)CNC(=O)CCSSCCNC1=O [B5-D2-I/3] | 102.465 | – | –
34 | NC(=O)CCC1NC(=O)C2CC(NC(=O)c3ccc(Cl)s3)CN2C(=O)C2(CC2)CNC(=O)CCSSCCNC1=O (stereo not shown) [X B6 D5 Q] | – | 109.4 | 121.6
35 | C[C@H]1NC(=O)CCSSCCNC(=O)[C@H]2CCCN(C2)C(=O)[C@H](CCCCNC(=O)c2ccc(Cl)s2)NC1=O [X a D1 B4] | – | 107.0 | 109.1
36 | Cc1nnsc1C(=O)NCCCC[C@@H]1NC(=O)[C@@H]2CCCN2C(=O)CCSSCCNC(=O)[C@H](CCC(N)=O)NC1=O [B1-D1-Q/15] ([Mpa]PK(1,2,3Thiadiazole5CO(4-Me))Q-Cysteamide; disulfide 1-C) | 113.502 | – | –
37 | O=C1CCSSCCNC(=O)[C@H](CCCNC(=O)c2ccco2)NC(=O)c2ccc(cc2)CNC(=O)[C@H](CO)N1 [S-B3-D2/16] | 114.086 | – | –
38 | O=C1CCSSCCNC(=O)C2(CC2)CNC(=O)[C@H](CO)NC(=O)[C@H](CCCCNC(=O)c2c[nH]c(=O)[nH]c2=O)N1 [D1-S-B6/11] | 103.758 | – | –
39 | O=C(NCCC[C@@H]1NC(=O)[C@H](CO)NC(=O)[C@@H]2CCCN2C(=O)CCSSCCNC1=O)c1ccccc1 [B1-s-D2/1] ([Mpa]PS[Orn](Bz)-Cysteamide; disulfide 1-C) | 108.892 | – | –
40 | CC[C@H](C)[C@@H]1NC(=O)CCSSCCNC(=O)[C@H](CCCCNC(=O)c2c[nH]c(=O)[nH]c2=O)NC(=O)c2cccc(c2)CNC1=O [I-B5-D1/11] | 106.327 | – | –
41 | CC(C)[C@@H]1NC(=O)CCSSCCNC(=O)[C@@H]2CCCN2C(=O)[C@H](CCCCNC(=O)COc2ccccc2)NC1=O [V-D1-B1/13] ([Mpa]VK(Phenoxyacetyl)P-Cysteamide; disulfide 1-C) | 111.167 | – | –
42 | C[C@H]1NC(=O)CCSSCCNC(=O)[C@H](CCCCNC(=O)c2ccccc2)NC(=O)CCNC1=O [a-B2-D1/1] | 107.599 | – | –
43 | CC(C)C[C@@H]1NC(=O)CCNC(=O)CCSSCCNC(=O)[C@H](CCCNC(=O)c2cnccn2)NC1=O [B2-L-D2/2] | 112.903 | – | –
44 | O=C1CCNC(=O)[C@H](Cc2c[nH]cn2)NC(=O)CCSSCCNC(=O)[C@H](CCCNC(=O)c2ccc(Cl)s2)N1 [X H B2 D2] | – | 94.6 | 91.5
45 | O=C(Cc1c[nH]c2ccccc12)NCCC[C@@H]1NC(=O)c2ccc(cc2)CNC(=O)[C@H](CO)NC(=O)CCSSCCNC1=O [S-B3-D2/12] | 111.94 | – | –
